Data set [1] relates to human platelet aggregation. As to the kind of experiment: Human platelet aggregation inhibitory activity (method of Pharmacological Test 1 in WO 94/21599). The data set is classed as cell-based. The settings on record: for IC50: read-out: IC50, human platelet aggregation inhibition. On the procedure:
(§1) GP IIb/IIIa Antagonistic Activity and Human Platelet Aggregation Inhibitory Activity
Human platelet aggregation inhibitory activity was measured for the compounds according to the present invention. The measurement of the human platelet aggregation activity was carried out according to the method described in Pharmacological Test 1 in WO 94/21599.

In another data set the target is GP IIb/IIIa (Homo sapiens, UniProt P05106+P08514). As to the kind of experiment: GP IIb/IIIa antagonistic activity (method of Pharmacological Test 2 in WO 94/21599). Format: binding. On the procedure: as §1
GP IIb/IIIa antagonistic activity was measured for the compounds according to the present invention. The measurement of the GP IIb/IIIa antagonistic activity was carried out according to the method described in Pharmacological Test 2 in WO 94/21599.

Data set [2] deals with T1, integrin αvβ3 (vitronectin receptor purified from the human placenta) (Homo sapiens, UniProt P05106+P06756).
T1 construct: a vitronectin receptor (protein content: 118 μg/ml) purified from the human placenta; from tissue; host or cells: human placenta
The experiment in a line: αvβ3 binding assay (vitronectin-vitronectin receptor binding assay). Particulars: for IC50: vitronectin receptor from human placenta, read-out: IC50, inhibition of binding between vitronectin and vitronectin receptor (αvβ3 binding inhibitory activity). On the procedure:
Integrin αvβ3 antagonistic activity was measured for the compounds according to the present invention in a vitronectin-vitronectin receptor binding assay system in accordance with the method of Kouns et al. (W. C. Kouns, D. Kirchhofer, P. Hadvary, A. Edenhofer, T. Weller, G. Pfenninger, H. R. Baumgartner, L. K. Jennings and B. Steiner, Blood, 8, 2539-2547 (1992)).
Specifically, a vitronectin receptor (protein content: 118 μg/ml) purified from the human placenta in accordance with the method of Pytela et al. (R. Pytela, M. D. Pierschbacher, S. Argraves, S. Suzuki, and E. Ruoslahti, Method in Enzymology, 144, 475-489 (1987)) was diluted 50 times with TBS (20 mM Tris-HCl, 150 mM NaCl, 1 mM CaCl2, 1 mM MgCl2, pH 7.4), and distributed and coated on wells (50 μl/well) of a plate (Maxisorp, Nunc, 96 well Immuno Plate). The plate was then allowed to stand at 4° C. for 1 day, washed twice with TBS (200 μl/well), and then subjected to blocking with TBS (150 μl/well) containing 1% bovine serum albumin (SIGMA) at 4° C. overnight. After washing twice with TBS (200 μl/well), 50 μl of vitronectin (CALBIOCHEM) adjusted to 0.2 μg/ml by the addition of TBS (TBS-Tween) containing 0.01% Tween-20 was mixed with 50 μl of each test compound adjusted to each concentration in wells, and a reaction was allowed to proceed at room temperature for 4 hr. After the completion of the reaction, the wells were washed five times with TBS-Tween. A solution prepared by diluting anti-vitronectin rabbit antiserum (CHEMICON) 500 times with TBS-Tween was added as a primary antibody in an amount of 50 μl per well, and a reaction was allowed to proceed at room temperature for 1.5 hr. After washing five times with 200 μl/well of TBS-Tween, a peroxidase (POD)-labeled anti-rabbit IgG antibody solution (CAPPEL) diluted 500 times with TBS-Tween was added as a secondary antibody in an amount of 50 μl/well, and a reaction was allowed to proceed at room temperature for 1.5 hr. After washing five times with TBS-Tween (200 μl /well), ABTS (2,2′-azino-bis(3-ethylbenzthiazoline-6-sulfonic acid), SIGMA) was adjusted to 1 mg/ml by the addition of a ten-fold diluted POD-buffer (ZYMED), and added in an amount of 50 μl/well, and a reaction was allowed to proceed for 5 to 10 min. A 0.1 M citric acid buffer (pH 4.3) containing 0.05% NaN3 was added in an amount of 50 μl/well to stop the reaction, followed by the measurement of the absorbance at 415 nm with a microplate reader (MTP 32, Corona Electric) (reference: 675 nm). The total binding was defined as the absorbance after a reaction using 50 μl of TBS-Tween instead of the test compound, and the non-specific binding (100% inhibition) was defined as the absorbance after a reaction using 50 μl of TBS-Tween containing 2×10^−3 M RGDS. The inhibition was calculated by the following equation: [formula]
(§2) IC50 was determined from a primary regression line of the logarithm of each concentration of the test compound and the logarithm of (100−inhibition)/inhibition.

For data set [3], the target named is T2, integrin α5β1 (fibronectin receptor purified from the human placenta) (Homo sapiens, UniProt P05556+P08648).
T2 construct: a fibronectin receptor (protein content: 52.1 μg/ml) purified from the human placenta; from tissue; host or cells: human placenta
As to the kind of experiment: α5β1 binding assay (fibronectin-fibronectin receptor binding assay). The settings on record: read-out: IC50, integrin α5β1 antagonistic activity (fibronectin-fibronectin receptor binding). On the procedure: The plate was then allowed to stand at 4° C. for one day, washed twice with TBS (200 μl/well), and then subjected to blocking with TBS (150 μl/well) containing 3% skim milk (DIFCO) at 4° C. overnight. […] After the completion of the reaction, the wells were washed five times with TBS-Tween. A solution prepared by diluting a peroxidase-labeled fibronectin antibody (CAPPEL) 500 times with TBS-Tween was added in an amount of 50 μl per well, and a reaction was allowed to proceed at room temperature for 1.5 hr. After washing five times with TBS-Tween (200 μl/well), ABTS (SIGMA) adjusted to 1 mg/ml by the addition of a ten-fold diluted POD-buffer (ZYMED) was added in an amount of 50 μl/well, and a reaction was allowed to proceed for 5 to 10 min. A 0.1 M citric acid buffer (pH 4.3) containing 0.05% NaN3 was added in an amount of 50 μl/well to stop the reaction, followed by the measurement of the absorbance at 415 nm with a microplate reader (MTP 32, Corona Electric) (reference: 675 nm). […] The inhibition was calculated by the following equation: [formula]
as §2

Another data set can be described thus: Oral absorption in rats. The data set is classed as in vivo. Particulars: data not shown. An excerpt:
Therefore, any of the compounds, wherein R^9 represents an alkyl group or a hydrogen atom, can be used in the treatment of the above diseases.

T1 sequence (P06756 31-889 limits assumed): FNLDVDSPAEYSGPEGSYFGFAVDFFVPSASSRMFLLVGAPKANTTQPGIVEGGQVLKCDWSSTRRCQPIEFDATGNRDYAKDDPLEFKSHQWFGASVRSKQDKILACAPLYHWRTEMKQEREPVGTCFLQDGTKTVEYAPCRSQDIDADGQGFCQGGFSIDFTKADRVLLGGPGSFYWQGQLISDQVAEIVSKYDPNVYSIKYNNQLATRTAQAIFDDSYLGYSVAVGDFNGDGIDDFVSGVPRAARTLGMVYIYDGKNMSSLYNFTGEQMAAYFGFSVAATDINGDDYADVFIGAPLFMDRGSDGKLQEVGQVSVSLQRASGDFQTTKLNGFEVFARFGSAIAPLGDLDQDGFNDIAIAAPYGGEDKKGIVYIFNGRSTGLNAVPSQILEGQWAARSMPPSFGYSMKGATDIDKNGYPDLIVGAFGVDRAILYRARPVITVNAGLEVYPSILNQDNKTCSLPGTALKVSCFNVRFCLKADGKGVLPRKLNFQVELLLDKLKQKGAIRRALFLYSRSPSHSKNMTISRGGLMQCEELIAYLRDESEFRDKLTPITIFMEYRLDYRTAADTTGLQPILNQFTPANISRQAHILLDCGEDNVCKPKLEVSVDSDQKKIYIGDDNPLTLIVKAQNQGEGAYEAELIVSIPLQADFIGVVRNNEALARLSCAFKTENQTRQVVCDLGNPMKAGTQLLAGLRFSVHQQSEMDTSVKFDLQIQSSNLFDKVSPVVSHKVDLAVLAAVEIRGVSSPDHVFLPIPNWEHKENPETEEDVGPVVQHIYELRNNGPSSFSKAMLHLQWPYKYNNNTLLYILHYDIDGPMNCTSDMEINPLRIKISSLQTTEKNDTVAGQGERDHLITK
T1 sequence (P06756 891-1048 partner limits assumed): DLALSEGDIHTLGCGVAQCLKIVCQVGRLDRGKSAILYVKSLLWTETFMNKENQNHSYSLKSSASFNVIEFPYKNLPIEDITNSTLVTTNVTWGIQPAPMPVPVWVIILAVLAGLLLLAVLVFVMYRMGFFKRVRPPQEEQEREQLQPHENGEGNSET
T1 sequence (P05106 27-788): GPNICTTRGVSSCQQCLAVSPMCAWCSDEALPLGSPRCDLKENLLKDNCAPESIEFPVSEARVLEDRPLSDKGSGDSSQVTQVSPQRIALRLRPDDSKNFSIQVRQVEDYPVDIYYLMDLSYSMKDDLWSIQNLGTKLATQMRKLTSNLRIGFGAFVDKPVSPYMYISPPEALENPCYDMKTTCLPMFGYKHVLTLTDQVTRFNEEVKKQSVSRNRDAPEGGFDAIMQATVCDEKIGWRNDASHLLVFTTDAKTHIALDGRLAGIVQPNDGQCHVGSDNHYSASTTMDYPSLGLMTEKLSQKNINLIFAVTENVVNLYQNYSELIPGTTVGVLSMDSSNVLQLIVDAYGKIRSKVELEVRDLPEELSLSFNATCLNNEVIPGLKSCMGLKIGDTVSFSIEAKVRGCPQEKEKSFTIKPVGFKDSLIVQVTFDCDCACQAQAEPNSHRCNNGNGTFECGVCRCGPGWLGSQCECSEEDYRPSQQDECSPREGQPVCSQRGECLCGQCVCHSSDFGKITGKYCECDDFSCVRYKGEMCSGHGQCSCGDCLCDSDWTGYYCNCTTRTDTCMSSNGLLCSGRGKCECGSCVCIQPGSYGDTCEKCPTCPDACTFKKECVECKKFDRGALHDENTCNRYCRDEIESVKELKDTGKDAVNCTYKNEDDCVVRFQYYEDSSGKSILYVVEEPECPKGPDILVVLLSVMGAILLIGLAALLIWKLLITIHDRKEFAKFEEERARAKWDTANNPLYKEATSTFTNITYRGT
GP IIb/IIIa, sequence (P08514 32-887 limits assumed): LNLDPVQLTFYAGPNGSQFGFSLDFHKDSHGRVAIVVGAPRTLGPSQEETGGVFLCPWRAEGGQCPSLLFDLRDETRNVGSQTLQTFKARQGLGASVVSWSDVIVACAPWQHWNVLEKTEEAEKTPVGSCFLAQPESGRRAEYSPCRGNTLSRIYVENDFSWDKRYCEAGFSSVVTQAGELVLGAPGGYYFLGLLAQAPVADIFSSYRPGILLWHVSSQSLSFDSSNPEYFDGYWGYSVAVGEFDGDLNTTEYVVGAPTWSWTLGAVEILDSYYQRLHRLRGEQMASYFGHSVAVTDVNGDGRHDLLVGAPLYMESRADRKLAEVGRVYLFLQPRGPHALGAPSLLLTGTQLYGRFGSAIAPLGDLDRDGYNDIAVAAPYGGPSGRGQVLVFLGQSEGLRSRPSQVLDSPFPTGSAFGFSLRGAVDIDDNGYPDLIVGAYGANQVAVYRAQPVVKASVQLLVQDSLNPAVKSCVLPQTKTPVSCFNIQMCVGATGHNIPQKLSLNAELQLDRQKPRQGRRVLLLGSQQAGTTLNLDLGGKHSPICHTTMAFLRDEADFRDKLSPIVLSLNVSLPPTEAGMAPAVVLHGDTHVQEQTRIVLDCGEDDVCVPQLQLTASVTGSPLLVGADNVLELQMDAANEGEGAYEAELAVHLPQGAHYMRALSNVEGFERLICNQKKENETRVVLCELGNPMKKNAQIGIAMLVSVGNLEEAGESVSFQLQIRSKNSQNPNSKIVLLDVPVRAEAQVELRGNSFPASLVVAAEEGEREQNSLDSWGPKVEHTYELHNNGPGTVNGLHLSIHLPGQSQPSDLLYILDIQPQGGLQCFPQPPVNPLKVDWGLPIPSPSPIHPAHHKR
GP IIb/IIIa, sequence (P08514 891-1039 partner limits assumed): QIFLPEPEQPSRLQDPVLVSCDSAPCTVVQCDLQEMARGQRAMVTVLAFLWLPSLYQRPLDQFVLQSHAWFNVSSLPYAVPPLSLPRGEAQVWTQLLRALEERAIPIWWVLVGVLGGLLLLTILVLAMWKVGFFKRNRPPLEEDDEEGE
GP IIb/IIIa, sequence (P05106 27-788): as the sequence (P05106 27-788) above
T2 sequence (P08648 42-894 limits assumed): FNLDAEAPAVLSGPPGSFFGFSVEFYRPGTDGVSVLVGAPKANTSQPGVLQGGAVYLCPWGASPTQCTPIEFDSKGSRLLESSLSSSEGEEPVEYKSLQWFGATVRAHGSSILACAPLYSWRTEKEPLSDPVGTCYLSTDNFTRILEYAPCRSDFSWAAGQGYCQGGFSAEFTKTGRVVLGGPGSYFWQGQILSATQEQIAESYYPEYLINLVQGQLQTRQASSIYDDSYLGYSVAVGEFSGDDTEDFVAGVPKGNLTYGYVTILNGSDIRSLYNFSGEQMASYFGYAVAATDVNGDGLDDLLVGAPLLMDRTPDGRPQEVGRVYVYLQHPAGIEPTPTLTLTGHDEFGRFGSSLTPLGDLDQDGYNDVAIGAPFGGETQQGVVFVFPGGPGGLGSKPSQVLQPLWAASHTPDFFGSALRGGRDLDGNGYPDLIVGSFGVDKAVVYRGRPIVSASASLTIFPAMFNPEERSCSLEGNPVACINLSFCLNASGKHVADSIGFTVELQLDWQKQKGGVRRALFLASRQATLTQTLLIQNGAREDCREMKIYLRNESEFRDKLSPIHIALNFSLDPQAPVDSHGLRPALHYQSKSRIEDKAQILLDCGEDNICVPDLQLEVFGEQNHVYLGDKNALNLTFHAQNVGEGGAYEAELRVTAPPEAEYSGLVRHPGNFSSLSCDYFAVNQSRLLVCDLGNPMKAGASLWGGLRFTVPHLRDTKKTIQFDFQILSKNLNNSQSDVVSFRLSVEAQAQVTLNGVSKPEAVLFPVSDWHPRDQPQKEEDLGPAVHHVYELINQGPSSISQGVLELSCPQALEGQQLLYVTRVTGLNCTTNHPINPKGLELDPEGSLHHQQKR
T2 sequence (P08648 895-1049 partner limits assumed): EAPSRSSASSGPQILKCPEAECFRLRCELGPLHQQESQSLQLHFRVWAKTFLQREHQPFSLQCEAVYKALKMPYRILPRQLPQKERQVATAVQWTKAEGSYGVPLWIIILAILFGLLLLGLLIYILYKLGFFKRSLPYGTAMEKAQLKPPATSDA
T2 sequence (P05556 21-798): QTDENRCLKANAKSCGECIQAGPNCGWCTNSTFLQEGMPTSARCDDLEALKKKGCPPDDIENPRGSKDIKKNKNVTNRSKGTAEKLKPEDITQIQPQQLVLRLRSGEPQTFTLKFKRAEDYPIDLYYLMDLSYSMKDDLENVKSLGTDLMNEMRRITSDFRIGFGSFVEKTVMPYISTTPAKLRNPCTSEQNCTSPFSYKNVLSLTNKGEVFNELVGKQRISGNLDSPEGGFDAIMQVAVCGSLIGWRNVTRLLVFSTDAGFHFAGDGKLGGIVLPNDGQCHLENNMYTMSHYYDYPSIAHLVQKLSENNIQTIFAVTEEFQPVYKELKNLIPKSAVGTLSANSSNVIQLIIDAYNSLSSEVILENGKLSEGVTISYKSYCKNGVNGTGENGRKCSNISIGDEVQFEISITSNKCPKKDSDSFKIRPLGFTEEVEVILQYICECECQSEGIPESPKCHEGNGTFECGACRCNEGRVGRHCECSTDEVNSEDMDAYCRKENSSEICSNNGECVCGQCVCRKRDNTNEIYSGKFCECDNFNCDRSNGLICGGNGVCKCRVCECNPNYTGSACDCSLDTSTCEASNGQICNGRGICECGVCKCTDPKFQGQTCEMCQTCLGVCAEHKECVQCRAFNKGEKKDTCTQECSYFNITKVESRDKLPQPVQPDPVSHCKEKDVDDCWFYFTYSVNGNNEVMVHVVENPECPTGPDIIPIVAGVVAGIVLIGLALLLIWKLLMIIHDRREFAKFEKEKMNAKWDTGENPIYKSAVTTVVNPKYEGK

A word on the IC50: it is the midpoint of a concentration-inhibition curve. Consider `N=C(N)N1CCN(c2ccc(C(=O)NC[C@H](NS(=O)(=O)c3ccccc3)C(=O)O)cc2)CC1` [Example 34, (2S)-Benzenesulfonylamino-3-[4-{4-(amidino)-piperazin-1-yl}-benzoylamino]-propionic Acid], for which, in data set [1], the “human platelet aggregation inhibition (in words)” value is recorded as “very strongly inhibited human platelet aggregation” and the IC50 was 38 nM.
For the compound `Cc1cc(C)c(S(=O)(=O)N[C@@H](CNC(=O)c2ccc(N3CCN(c4ncccn4)CC3)c(F)c2)C(=O)O)c(C)c1` [Example 82, 3-[3-Fluoro-4-{4-(pyrimidin-2-yl)-piperazin-1-yl}-benzoylamino]-(2S)-(2,4,6-trimethyl-benzenesulfonylamino)-propionic Acid], the “GP IIb/IIIa antagonistic activity (in words)” value at GP IIb/IIIa is reported as “extremely high GP IIb/IIIa antagonistic activity”.
`Nc1c(N2CCN(C3=NCCCN3)CC2)ccc(C(=O)NC[C@H](NS(=O)(=O)c2ccccc2)C(=O)O)c1Cl` [Example 65, 3-[3-Amino-2-chloro-4-{4-(1,4,5,6-tetrahydropyrimidin-2-yl)-piperazin-1-yl}-benzoylamino]-(2S)-benzenesulfonylamino-propionic Acid]: at GP IIb/IIIa, the “GP IIb/IIIa antagonistic activity (in words)” value is recorded as “extremely high GP IIb/IIIa antagonistic activity”. In data set [2], the “integrin αvβ3 antagonistic activity (in words)” value is listed as “high integrin αvβ3 antagonistic activity” and the IC50 was 6.3 nM.
As to `C[C@H]1CN(c2ccc(C(=O)NC[C@H](NS(=O)(=O)c3ccccc3)C(=O)O)cc2F)CCN1C1=NCCCN1` [Example 72, (2S)-Benzenesulfonylamino-3-[3-fluoro-4-{(3S)-methyl-4-(1,4,5,6-tetrahydropyrimidin-2-yl)-piperazin-1-yl}-benzoylamino]-propionic Acid], at GP IIb/IIIa, the “GP IIb/IIIa antagonistic activity (in words)” value is “extremely high GP IIb/IIIa antagonistic activity” and the IC50 is ≤ 0.2 nM. For the same compound, the “integrin αvβ3 antagonistic activity (in words)” value in data set [2] was “high integrin αvβ3 antagonistic activity”.
Turning to `CC1CN(c2ccc(C(=O)NC[C@H](NS(=O)(=O)c3ccccc3)C(=O)O)cc2)CCN1C1=NCCCN1` (stereo partly drawn) [Example 9, (2S)-Benzenesulfonylamino-3-[4-{3-methyl-4-(1,4,5,6-tetrahydropyrimidin-2-yl)-piperazin-1-yl}-benzoylamino]-propionic acid], in data set [1], the “human platelet aggregation inhibition (in words)” value is on record as “very strongly inhibited human platelet aggregation” and the IC50 was 50 nM.
For the compound `Cc1cc(C)c(S(=O)(=O)N[C@@H](CNC(=O)c2ccc(N3CCN(C4=NCCCN4)CC3)c(F)c2)C(=O)O)c(C)c1` [Example 83, 3-[3-Fluoro-4-{4-(1,4,5,6-tetrahydropyrimidin-2-yl)-piperazin-1-yl}-benzoylamino]-(2S)-(2,4,6-trimethyl-benzenesulfonylamino)-propionic Acid], the IC50 was 13000 nM in data set [3] and 5.8 nM in data set [2].
Turning to `O=C(NC[C@H](NS(=O)(=O)c1ccccc1)C(=O)O)c1ccc(N2CCCN(c3ncccn3)CC2)cc1` [Example 5, (2S)-Benzenesulfonylamino-3-[4-{4-(pyrimidin-2-yl) -[1,4]diazepan-1-yl}-benzoylamino]-propionic acid], in the data set “Oral absorption in rats”, the oral absorption entry is listed as “excellent oral absorption”.
For `O=C(NC[C@H](NS(=O)(=O)c1ccccc1)C(=O)O)c1ccc(N2CCN(C3=NCCCN3)CC2)cc1Cl` [Example 62, (2S)-Benzenesulfonylamino-3-[2-chloro-4-{4-(1,4,5,6-tetrahydropyrimidin-2-yl)-piperazin-1-yl}-benzoylamino]-propionic Acid], the IC50 on GP IIb/IIIa was ≤ 0.2 nM.
Still for that read-out and setting: the value for `O=C(NC[C@H](NS(=O)(=O)c1ccccc1)C(=O)O)c1ccc(N2CCN(C3=NCCCN3)CC2)cc1F` [Example 56, (2S)-Benzenesulfonylamino-3-[2-fluoro-4-{4-(1,4,5,6-tetrahydropyrimidin-2-yl)-piperazin-1-yl}-benzoylamino]-propionic Acid] was ≤ 0.2 nM.
As to `O=C(NC[C@H](NS(=O)(=O)c1ccccc1)C(=O)O)c1ccc(N2CCCN(C3=NCCCN3)CC2)cc1` [Example 6, (2S)-Benzenesulfonylamino-3-[4-{4-(1,4,5,6-tetrahydropyrimidin-2-yl)-[1,4]diazepan-1-yl}-benzoylamino]-propionic acid], in data set [1], the “human platelet aggregation inhibition (in words)” value is listed as “very strongly inhibited human platelet aggregation” and the IC50 is 50 nM.
On to `C[C@@H]1CN(c2ccc(C(=O)NC[C@H](NS(=O)(=O)c3ccccc3)C(=O)O)cc2)CCN1C1=NCCCN1` [Example 12, (2S)-Benzenesulfonylamino-3-[4-{(3R)-methyl-4-(1,4,5,6-tetrahydropyrimidin-2-yl)-piperazin-1-yl}-benzoylamino]-propionic acid], for which, in data set [1], the “human platelet aggregation inhibition (in words)” value is “very strongly inhibited human platelet aggregation”.
`O=C(NC[C@H](NS(=O)(=O)c1ccccc1)C(=O)O)c1ccc(N2CCN(C3=NCCCN3)CC2)c(Cl)c1` [Example 59, (2S)-Benzenesulfonylamino-3-[3-chloro-4-{4-(1,4,5,6-tetrahydropyrimidin-2-yl)-piperazin-1-yl}-benzoylamino]-propionic Acid]: the IC50 was ≤ 0.2 nM against GP IIb/IIIa, 63000 nM in data set [3] and 3.5 nM in data set [2].

These data come from patent US6451800B1, “Phenylpiperazine derivatives as integrin αvβ3 antagonists” (Meiji Seika Kaisha, Ltd., priority 1998, dated 2002).
